System: Fungi
Assay: Preservation tests for milky-lotion type hair tonics (Example 9)
Design: key: +: Fungi appeared
Conditions: day 14; 37° C.; DNA 0.03%, control 0.1% Ethyl p-hydroxy benzoate
Protocol: A milky-lotion type hair tonic was prepared using the components described below. It was manufactured under the open system since microbial infection from the air was expected.
The oil phase (A) and aqueous phase (B) were heated to 85° C., respectively. Then, (A) and (B) were mixed and agitated to emulsification at the same temperature. A hair tonic was prepared after the mixture was cooled down to normal temperature.
The hair tonic prepared was poured into a bottle with 0.03% of the DNA. The bottle was sealed and kept at 37° C. for preservation tests. 0.1% Ethyl p-hydroxy benzoate was added to the hair tonic as a control instead of the DNA.

SMILES: CCOC(=O)c1ccc(O)cc1 [Control, Ethyl p-hydroxy benzoate]
- appearance of fungi in hair tonic: +

— patent US6444651B1, “Antimicrobial agents for eucaryotic microorganisms and methods of growth suppression of eucaryotic microorganisms using these agents” (Asama Chemical Co., Ltd., priority 1997, dated 2002)
